Data from US8383162B2 (priority 2006, dated 2013).
“Also recorded” adds a separate entry of the source.

How the values were obtained:
rats [1] = details: rat, in vivo
rats [2] = details: rat, in vivo; remark: listed apart in the source
N-type calcium channels = molecular target: T1, N-type calcium channels (Homo sapiens, UniProt Q00975); type: cell-based, mammalian
T1 construct: expressed in transfected cells; host or cells: HEK cells

[3] = tested on: N-type calcium channels on neuronal pre-synaptic membrane; type: cell-based
[4] = tested on: HVA calcium channels subtypes (L, N, P/Q and R); type: cell-based, mammalian
rats [5] = details: rat, in vivo; remark: listed apart in the source
[6] = tested on: central nervous system cells; assay: Acute toxicity and electrical excitability in central nervous system cells
[7] = Acute, chronic and neurogenic pain after intrathecal bolus pretreatment; type: in vivo; details: pretreatment by intrathecal bolus injection
Description: In the heat pain model the antinociceptive effect of the Phα1B lasts 24 h.

synaptosomes [8] = type: cell-based
rats [9] = details: rat, in vivo; remark: listed apart in the source
synaptosomes [10] = type: cell-based; remark: listed apart in the source
[11] = tested on: nerve ending spinal cord of rats; type: cell-based

T1 sequence (Q02641 whole entry): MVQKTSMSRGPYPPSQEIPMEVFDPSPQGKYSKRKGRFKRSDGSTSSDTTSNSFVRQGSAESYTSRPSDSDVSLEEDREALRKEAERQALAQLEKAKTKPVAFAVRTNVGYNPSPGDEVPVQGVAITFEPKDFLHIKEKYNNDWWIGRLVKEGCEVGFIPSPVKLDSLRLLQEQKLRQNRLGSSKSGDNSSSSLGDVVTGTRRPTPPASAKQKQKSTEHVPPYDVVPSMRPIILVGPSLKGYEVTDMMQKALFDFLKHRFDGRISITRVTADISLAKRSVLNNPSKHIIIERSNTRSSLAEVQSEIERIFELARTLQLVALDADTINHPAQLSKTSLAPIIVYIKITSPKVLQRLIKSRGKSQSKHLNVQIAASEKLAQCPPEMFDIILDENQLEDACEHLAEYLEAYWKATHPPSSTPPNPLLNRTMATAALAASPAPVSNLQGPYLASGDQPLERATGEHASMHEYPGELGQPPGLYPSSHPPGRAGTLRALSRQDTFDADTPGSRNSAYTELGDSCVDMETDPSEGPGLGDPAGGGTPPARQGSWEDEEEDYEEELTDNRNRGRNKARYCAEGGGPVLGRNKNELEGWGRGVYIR
T1 sequence (P54289 957-1103, further chain): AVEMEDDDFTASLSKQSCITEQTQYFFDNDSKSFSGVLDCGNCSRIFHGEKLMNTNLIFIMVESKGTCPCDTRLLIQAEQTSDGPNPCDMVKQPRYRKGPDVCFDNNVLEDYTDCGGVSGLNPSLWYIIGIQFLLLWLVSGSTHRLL
T1 sequence (P54289 25-956, further chain): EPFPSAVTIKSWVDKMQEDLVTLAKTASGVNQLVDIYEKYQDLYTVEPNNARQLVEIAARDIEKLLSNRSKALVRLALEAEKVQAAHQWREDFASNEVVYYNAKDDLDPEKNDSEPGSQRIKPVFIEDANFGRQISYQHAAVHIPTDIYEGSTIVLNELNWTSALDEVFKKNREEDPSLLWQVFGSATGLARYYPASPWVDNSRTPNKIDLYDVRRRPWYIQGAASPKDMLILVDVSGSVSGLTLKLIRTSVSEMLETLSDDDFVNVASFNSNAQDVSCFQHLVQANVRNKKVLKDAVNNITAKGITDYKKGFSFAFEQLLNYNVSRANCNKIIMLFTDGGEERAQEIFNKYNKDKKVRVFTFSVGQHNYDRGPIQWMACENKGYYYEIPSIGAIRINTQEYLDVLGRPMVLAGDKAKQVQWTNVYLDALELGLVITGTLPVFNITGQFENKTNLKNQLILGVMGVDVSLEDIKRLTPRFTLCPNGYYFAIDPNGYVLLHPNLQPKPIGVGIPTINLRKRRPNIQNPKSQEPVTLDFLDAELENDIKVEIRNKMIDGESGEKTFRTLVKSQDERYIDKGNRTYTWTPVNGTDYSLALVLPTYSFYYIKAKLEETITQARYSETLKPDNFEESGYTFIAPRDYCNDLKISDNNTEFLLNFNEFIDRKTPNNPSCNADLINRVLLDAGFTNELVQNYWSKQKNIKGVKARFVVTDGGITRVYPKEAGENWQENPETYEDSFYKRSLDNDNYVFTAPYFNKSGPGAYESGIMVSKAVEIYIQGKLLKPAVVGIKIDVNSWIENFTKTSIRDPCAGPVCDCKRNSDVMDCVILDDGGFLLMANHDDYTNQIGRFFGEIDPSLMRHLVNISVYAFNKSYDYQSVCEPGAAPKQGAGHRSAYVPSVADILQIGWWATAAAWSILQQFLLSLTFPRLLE
T1 sequence (Q00975 whole entry): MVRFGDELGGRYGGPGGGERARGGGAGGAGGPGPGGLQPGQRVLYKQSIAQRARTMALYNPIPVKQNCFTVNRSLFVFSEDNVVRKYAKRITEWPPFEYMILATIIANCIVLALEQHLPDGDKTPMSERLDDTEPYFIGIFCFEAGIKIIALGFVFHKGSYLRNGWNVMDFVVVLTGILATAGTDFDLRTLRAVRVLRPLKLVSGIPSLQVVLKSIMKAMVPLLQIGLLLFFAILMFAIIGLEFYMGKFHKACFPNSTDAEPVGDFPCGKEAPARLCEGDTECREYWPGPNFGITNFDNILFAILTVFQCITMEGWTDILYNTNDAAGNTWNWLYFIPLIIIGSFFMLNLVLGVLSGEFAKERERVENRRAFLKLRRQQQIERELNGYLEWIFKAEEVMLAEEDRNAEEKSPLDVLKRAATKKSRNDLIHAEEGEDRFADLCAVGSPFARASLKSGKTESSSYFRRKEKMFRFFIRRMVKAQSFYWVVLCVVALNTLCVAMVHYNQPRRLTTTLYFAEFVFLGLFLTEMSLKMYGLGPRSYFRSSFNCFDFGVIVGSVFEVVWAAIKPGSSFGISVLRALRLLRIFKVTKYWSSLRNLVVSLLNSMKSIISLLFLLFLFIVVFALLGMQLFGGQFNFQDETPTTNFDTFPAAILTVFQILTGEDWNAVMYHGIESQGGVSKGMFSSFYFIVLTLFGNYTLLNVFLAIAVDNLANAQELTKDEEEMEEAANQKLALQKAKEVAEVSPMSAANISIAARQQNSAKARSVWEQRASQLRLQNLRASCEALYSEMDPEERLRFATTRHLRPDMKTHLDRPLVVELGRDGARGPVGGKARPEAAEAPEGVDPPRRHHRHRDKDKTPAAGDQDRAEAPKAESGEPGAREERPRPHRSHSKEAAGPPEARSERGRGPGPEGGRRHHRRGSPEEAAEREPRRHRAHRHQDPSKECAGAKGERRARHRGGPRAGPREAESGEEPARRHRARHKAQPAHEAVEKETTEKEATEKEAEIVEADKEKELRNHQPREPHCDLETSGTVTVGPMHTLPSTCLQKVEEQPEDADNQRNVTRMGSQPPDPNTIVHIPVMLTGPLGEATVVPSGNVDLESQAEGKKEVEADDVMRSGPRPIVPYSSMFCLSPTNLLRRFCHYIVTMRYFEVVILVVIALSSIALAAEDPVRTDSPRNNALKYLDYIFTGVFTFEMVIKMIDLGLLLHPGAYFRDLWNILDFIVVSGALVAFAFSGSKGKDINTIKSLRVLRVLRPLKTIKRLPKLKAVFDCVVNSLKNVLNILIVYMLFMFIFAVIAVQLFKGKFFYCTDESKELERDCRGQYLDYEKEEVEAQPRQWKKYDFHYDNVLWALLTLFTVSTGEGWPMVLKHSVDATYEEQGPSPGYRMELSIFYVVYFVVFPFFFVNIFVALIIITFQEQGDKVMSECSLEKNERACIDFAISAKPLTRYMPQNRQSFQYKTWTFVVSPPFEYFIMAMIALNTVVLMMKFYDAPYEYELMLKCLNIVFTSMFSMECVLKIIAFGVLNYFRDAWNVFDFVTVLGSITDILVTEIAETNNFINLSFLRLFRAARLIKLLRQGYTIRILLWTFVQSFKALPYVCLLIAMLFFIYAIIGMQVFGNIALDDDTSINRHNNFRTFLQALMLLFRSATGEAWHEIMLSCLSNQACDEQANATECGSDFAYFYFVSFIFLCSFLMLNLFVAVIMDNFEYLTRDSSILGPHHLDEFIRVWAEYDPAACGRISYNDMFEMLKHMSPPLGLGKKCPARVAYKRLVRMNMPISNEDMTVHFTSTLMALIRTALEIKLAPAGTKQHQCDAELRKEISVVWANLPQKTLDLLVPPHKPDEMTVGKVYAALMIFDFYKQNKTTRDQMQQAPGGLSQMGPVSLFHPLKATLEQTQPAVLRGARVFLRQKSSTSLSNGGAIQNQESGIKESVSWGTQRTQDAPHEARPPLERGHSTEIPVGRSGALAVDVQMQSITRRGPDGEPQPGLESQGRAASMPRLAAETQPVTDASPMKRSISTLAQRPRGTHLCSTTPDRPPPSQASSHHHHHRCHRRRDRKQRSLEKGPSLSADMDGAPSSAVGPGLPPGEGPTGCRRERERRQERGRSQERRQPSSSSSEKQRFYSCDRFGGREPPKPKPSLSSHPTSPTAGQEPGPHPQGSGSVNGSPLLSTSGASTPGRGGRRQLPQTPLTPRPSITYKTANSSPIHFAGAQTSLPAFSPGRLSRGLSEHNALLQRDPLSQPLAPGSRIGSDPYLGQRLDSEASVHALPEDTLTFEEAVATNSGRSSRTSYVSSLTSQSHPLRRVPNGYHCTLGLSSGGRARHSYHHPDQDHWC

Question: Which “duration of antinociceptive effect in the heat pain model” value (rats [1]) does the source give for “Phα1B (ACIPRGEICTDDCECCGCDNQCYCPPGSSLGIFKCSCAHANKYFCNRKKEKCKA)” here?
Answer: 24 h

Question: What about the “efficacy against pain induced on the hot plate test” value (rats [1]) of the same compound?
Answer: higher efficacy than conotoxins

Question: What about the “latency period on hot plate, time points with significant increase” value (rats [1]) of the same compound?
Answer: increasing significantly the latency period to 3, 4, 5, 6 and 24 hours

Question: What about the “IC50 for the antinociceptive effect” value (rats [2]) of the same compound?
Answer: 50.2 pmol

Question: And the “antinociceptive effect (pain inhibition), in words” value (rats [2])?
Answer: reduces the pain in rats; also recorded: more effective to inhibit pain; also recorded: higher than that induced by morphine

Question: What about the “dose at which maximal inhibition was obtained” value (rats [2]) of the same compound?
Answer: 87.2 pmol

Question: And the “duration of the antinociceptive effect” value (rats [2])?
Answer: up to 24 hours

Question: What about the “reversibility of N-type calcium channel inhibition” value (N-type calcium channels) of the same compound?
Answer: reversibly inhibited

Question: And the IC50 (N-type calcium channels; read-out: IC50 for inhibition of N-type calcium channels)?
Answer: 122 nM

Question: And the “effect on capsaicin-induced increase of [Ca2+]i” value [3]?
Answer: inhibition

Question: And the “block of HVA calcium channel subtypes (L, N, P/Q and R)” value [4]?
Answer: reversible block of all four HVA calcium channels subtypes

Question: And the “selectivity among HVA Ca2+ channels” value [4]?
Answer: most potent and effective on N-type; also recorded: measurable preference for N-type channels

Question: What about the “ED50 for inhibiting the inflammatory phase of formalin test, comparison” value (rats [5]) of the same compound?
Answer: lower ED50 values

Question: What about the “antinociceptive effect on the inflammatory phase of formalin test” value (rats [5]) of the same compound?
Answer: potent and longer antinociceptive effect

Question: And the “effect on electrical excitability of the neurons” value [6]?
Answer: does not affect

Question: What about the “acute toxicity to the cells tested” value ([6]; central nervous system cells) of the same compound?
Answer: not acutely toxic

Question: And the “effect on acute, chronic and neurogenic pain” value [7]?
Answer: blocks the acute, cronic and neurogenic pain

Question: And the “effect on stimulated release of glutamate” value (synaptosomes [8])?
Answer: blocks; also recorded: blocked the release of glutamate

Question: And the “factor by which antinociceptive doses are lower than doses associated with side-effects (DT50)” value (rats [9])?
Answer: around 15 times

Question: And the “effect on uptake of 45Ca2+ (calcium influx on depolarized terminal)” value (synaptosomes [10])?
Answer: blocks

Question: What about the “efficacy to inhibit capsaicin-induced release of glutamate” value [11] of the same compound?
Answer: higher efficacy

Question: With CN1CC[C@]23c4c5ccc(O)c4O[C@H]2[C@@H](O)C=C[C@H]3[C@H]1C5 [morphine, reference compound] as the compound, how does the “duration of significant effect on hot plate” value (rats [1]) read?
Answer: up to 5 hours
